What is called IC50 is the midpoint of a concentration-inhibition curve.

Data set [1] concerns HL-60 cells. In words: MTT cytotoxicity assay, HL-60. It is filed as cell-based. The conditions noted are these: Homo sapiens, HL-60, 72 h, means ± SEM. From the text:
(§1) U-937, HL-60, MOLT-3, NALM-6, and SK-MEL-1 cells were from DSMZ (German Collection of Microorganisms and Cell Cultures, Braunschweig, Germany). U-937/Bcl-2 cells were kindly provided by Dr. Jacqueline Bréard (INSERM U749, Faculté de Pharmacie Paris-Sud, Châtenay-Malabry, France). The U-937 is a pro-monocytic, human promyelocytic leukemia cell line that was isolated from a histiocytic lymphoma. HL-60 is a human acute myeloid leukemia cell line. MOLT-3 is a human acute lymphoblastic leukemia cell line. NALM-6 is a human B cell precursor leukemia. SK-MEL-1 is a human melanoma cell line growing singly or in clumps (occasional giant, polynucleated cell) in suspension. Cells were cultured in RPMI 1640 medium containing 10% (v/v) heat-inactivated fetal bovine serum, 100 μg/mL streptomycin, and 100 U/mL penicillin, incubated at 37 °C in a humidified atmosphere containing 5% CO2 as described. The doubling times of the cell lines were 24 h in HL-60, 30 h in U-937, U-937/Bcl-2, 40 h in MOLT-3 and NALM-6, and several days in SK-MEL-1 cells. Human peripheral blood mononuclear cells (PBMC) were isolated from heparin-anticoagulated blood of healthy volunteers by centrifugation with Ficoll-Paque Plus (GE Healthcare Bio-Sciences AB, Uppsala, Sweden). PBMC were also stimulated with phytohemagglutinin (2 µg/mL) for 48 h before the experimental treatment. The trypan blue exclusion method was used for counting the cells by a hemocytometer with 95% viability in all the experiments. Compounds were dissolved in dimethyl sulfoxide (DMSO) and kept under dark conditions at 25 °C. […] The cytotoxicity of the synthetic compounds was evaluated by colorimetric 3-(4,5-dimethyl-2-thiazolyl-)-2,5-diphenyl-2H-tetrazolium bromide (MTT) assay as previously described. Briefly, cells (5000 per well) were incubated with increasing concentrations of compounds for 72 h into a 96-well plate. Then, the supernatants were removed and 0.5 mg/mL MTT was added and incubated for 4 h at 37 °C. Sodium dodecyl sulfate (10% w/v) in 0.05 M HCl was added to solubilize the reaction products and the absorbance was measured at 570 nm with a reference wavelength of […] using an ELISA reader (Bio-Rad, Hercules, CA, USA). The IC50 values (concentrations inducing a 50% inhibition of cell viability) were determined graphically for each experiment by a nonlinear regression using the curve fitting routine implemented within the software Prism 5.0 (GraphPad, La Jolla, CA, USA).

Data set [2] has as its system U-937/Bcl-2 cells. In words: MTT cytotoxicity assay, U-937/Bcl-2. It is filed as cell-based, human. The conditions noted are these: means ± SEM.
Text: as §1

For data set [3], the system named is SK-MEL-1 cells. As to the kind of experiment: MTT cytotoxicity assay, SK-MEL-1. The conditions noted are these: means ± SEM. It is filed as cell-based, human.
Text: as §1
(Formazan colour is commonly taken as a measure of viable cells.)

Data set [4] concerns PBMC. As to the kind of experiment: Annexin V-FITC/propidium iodide flow cytometry, PBMC. It is filed as cell-based, human. The conditions noted are these: 24 h; for annexin V-FITC positive cells with respect to control: 3 µM; for fold increase of annexin V-FITC positive cells with respect to control / annexin V-FITC positive cells: 10 µM; for annexin V-FITC positive cells: control 9.3%.
Text: as §1
Cells (2.5 × 10^5) were centrifuged for 10 min at 500× g, washed with cold PBS, fixed with ice-cold 75% ethanol and stored at −20 °C overnight. Samples were then centrifuged at 500× g for 10 min at 4 °C, washed with PBS, resuspended in 200 μL of PBS containing 100 μg/mL RNase and 50 μg/mL propidium iodide and incubated for 1 h in the dark. The DNA content was analyzed by flow cytometry with a BD FACSVerse^TM cytometer (BD Biosciences, San Jose, CA, USA). Apoptosis was also evaluated by flow cytometric analysis of double-staining annexin V-FITC and propidium iodide cells as previously described.

The test system of data set [5] is human peripheral blood mononuclear cells (PBMC). In words: Cell viability of quiescent and PHA-activated PBMC. In kind it is cell-based. The conditions noted are these: up to 10 µM, 24 h. An excerpt: (§2) U-937, HL-60, MOLT-3, NALM-6, and SK-MEL-1 cells were from DSMZ (German Collection of Microorganisms and Cell Cultures, Braunschweig, Germany). U-937/Bcl-2 cells were kindly provided by Dr. Jacqueline Bréard (INSERM U749, Faculté de Pharmacie Paris-Sud, Châtenay-Malabry, France). The U-937 is a pro-monocytic, human promyelocytic leukemia cell line that was isolated from a histiocytic lymphoma. HL-60 is a human acute myeloid leukemia cell line. MOLT-3 is a human acute lymphoblastic leukemia cell line. NALM-6 is a human B cell precursor leukemia. SK-MEL-1 is a human melanoma cell line growing singly or in clumps (occasional giant, polynucleated cell) in suspension. […] The cytotoxicity of the synthetic compounds was evaluated by colorimetric 3-(4,5-dimethyl-2-thiazolyl-)-2,5-diphenyl-2H-tetrazolium bromide (MTT) assay as previously described. […] Sodium dodecyl sulfate (10% w/v) in 0.05 M HCl was added to solubilize the reaction products and the absorbance was measured at 570 nm with a reference wavelength of […] using an ELISA reader (Bio-Rad, Hercules, CA, USA). […]
Figure 2 (a) Dose-response study of hybrid chalcone–guanidines on human U-937 leukemia cell viability. Cells were cultured in the presence of increasing concentrations of selected guanidines for 72 h, and thereafter cell viability was determined by the MTT assay. […]

Data set [6] relates to six human cancer cell lines. In words: MTT cytotoxicity assay, all cell lines assayed (summary statements). The conditions noted are these: Homo sapiens; range over the six cell lines, 72 h. In kind it is cell-based.
Text: as §2, with “suspension. Cells were cultured in RPMI 1640 medium containing 10% (v/v) heat-inactivated fetal bovine serum, 100 μg/mL streptomycin, and 100 U/mL penicillin, incubated at 37 °C in a humidified atmosphere containing 5% CO2 as described.” for “suspension.”

As for `Cc1ccc(S(=O)(=O)NC(=Nc2ccc(/C=C/C(=O)c3c(O)cccc3OCc3ccccc3)cc2)N2CCN(C)CC2)cc1` [Compound 6f], the half-maximal inhibitory concentration (IC50) in data set [1] was 1.6 ± 1 µM; in data set [2] (Homo sapiens, U-937, 72 h), 2.2 ± 0.8 µM; in data set [3] (Homo sapiens, SK-MEL-1, 72 h), 4.5 ± 0.4 µM; in data set [6] it was 1.5 to 4.5 µM. Besides, the “annexin V-FITC positive cells with respect to control” value in data set [4] is on record as “hardly increased”. Besides, in data set [4], the “fold increase of annexin V-FITC positive cells with respect to control” value worked out at 3 fold. For the same compound, the “annexin V-FITC positive cells” value in data set [4] turned out to be 27%. In data set [5], the “cytotoxicity against proliferating and quiescent lymphocytes (PBMC) versus U-937” value is reported as “lower cytotoxicity”.
Consider `O=C(/C=C/c1ccc(N=C(Nc2ccccc2)N2CCCCC2)cc1)c1c(O)cccc1OCc1ccccc1` [Compound 6i], for which the half-inhibitory concentration (IC50) in data set [2] (72 h) is 5.1 ± 1.8 µM; in data set [2] (Homo sapiens, U-937, 72 h), under 10 µM; in data set [3] (72 h), 13.8 ± 1.2 µM; in data set [3] (Homo sapiens, SK-MEL-1, 72 h) it was about 10 µM. For the same compound, the “annexin V-FITC positive cells with respect to control” value in data set [4] is “hardly increased”. Also, the “fold increase of annexin V-FITC positive cells with respect to control” value in data set [4] is on record as 1.4 fold. The “annexin V-FITC positive cells” value in data set [4] was found to be 13%. Besides, the “cytotoxicity against proliferating and quiescent lymphocytes (PBMC) versus U-937” value in data set [5] is recorded as “lower cytotoxicity”.
